In assay [1] the target is MAP kinase-interacting serine/threonine-protein kinase 2 (Homo sapiens, UniProt Q9HBH9). The format is functional.
Assay [2] addresses Serine/threonine-protein kinase PLK3 (Homo sapiens, UniProt Q9H4B4). In kind it is functional.
Assay [3] concerns the target cAMP-dependent protein kinase catalytic subunit PRKX (Homo sapiens, UniProt P51817). The format is functional.
Assay [4] addresses Mast/stem cell growth factor receptor Kit (Homo sapiens, UniProt P10721). The format is functional.
In assay [5] the target is Mitogen-activated protein kinase 1 (Homo sapiens, UniProt P28482). In kind it is functional.
Chain of Mitogen-activated protein kinase 1 (P28482 whole entry): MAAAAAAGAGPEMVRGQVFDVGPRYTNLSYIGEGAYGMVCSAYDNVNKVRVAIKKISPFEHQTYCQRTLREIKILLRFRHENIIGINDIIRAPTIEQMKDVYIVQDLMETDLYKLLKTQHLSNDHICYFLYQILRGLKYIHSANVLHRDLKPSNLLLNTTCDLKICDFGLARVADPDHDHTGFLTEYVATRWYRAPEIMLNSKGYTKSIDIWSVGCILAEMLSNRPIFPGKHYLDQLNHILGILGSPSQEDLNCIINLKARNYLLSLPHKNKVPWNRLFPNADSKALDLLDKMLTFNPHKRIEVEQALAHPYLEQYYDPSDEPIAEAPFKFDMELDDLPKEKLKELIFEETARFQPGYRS
In assay [6] the target is Rho-associated protein kinase 1 (Homo sapiens, UniProt Q13464). In kind it is functional.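 Further: measured within a broad kinome-wide panel profiling many kinases.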
The target of assay [7] is Tyrosine-protein kinase FRK (Homo sapiens, UniProt P42685). The format is functional.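 Further: FRK tested as one member of a kinome panel.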
Assay [8] has as its target Serine/threonine-protein kinase D3 (Homo sapiens, UniProt O94806). The format is functional.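 Further: determined within a kinase panel screen, with PRKCN as the panel member.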
Assay [9] has as its target Tyrosine-protein kinase SYK (Homo sapiens, UniProt P43405). In kind it is functional.
Assay [10] concerns the target Dual specificity mitogen-activated protein kinase kinase 2 (Homo sapiens, UniProt P36507). Put plainly: Navigating the Kinome. Panel member name: MAP2K2. The format is functional.
Assay [11] concerns the target Calcium/calmodulin-dependent protein kinase type II subunit delta (Homo sapiens, UniProt Q13557). The format is functional.
The target in assay [12] is Serine/threonine-protein kinase Nek2 (Homo sapiens, UniProt P51955). The format is functional.
Assay [13] concerns the target MAP kinase-activated protein kinase 3 (Homo sapiens, UniProt Q16644). The format is functional.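 Further: value comes from a kinome-wide profiling panel in which MAPKAPK3 is one of the panel members.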
Assay [14] concerns the target Tyrosine-protein kinase Fyn (Homo sapiens, UniProt P06241). The format is functional.
For another assay, the target named is SRSF protein kinase 1 (Homo sapiens, UniProt Q96SB4). The format is functional.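 Further: measured as one member of a kinome-wide kinase profiling panel.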
In assay [15] the target is Serine/threonine-protein kinase pim-1 (Homo sapiens, UniProt P11309). The format is functional.
Assay [16] has as its target Calcium/calmodulin-dependent protein kinase type II subunit alpha (Homo sapiens, UniProt Q9UQM7). The assay is described as follows: Navigating the Kinome. Panel member name: CAMK2A. The format is functional.
Assay [17] has as its target Vascular endothelial growth factor receptor 1 (Homo sapiens, UniProt P17948). The format is functional.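 Further: measured within a kinome-wide profiling panel, FLT1 as the panel member.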
The target of assay [18] is Fibroblast growth factor receptor 1 (Homo sapiens, UniProt P11362). The format is functional.
For assay [19], the target named is Casein kinase II subunit alpha (Homo sapiens, UniProt P68400). The format is functional.
Chain of Casein kinase II subunit alpha (P68400 whole entry): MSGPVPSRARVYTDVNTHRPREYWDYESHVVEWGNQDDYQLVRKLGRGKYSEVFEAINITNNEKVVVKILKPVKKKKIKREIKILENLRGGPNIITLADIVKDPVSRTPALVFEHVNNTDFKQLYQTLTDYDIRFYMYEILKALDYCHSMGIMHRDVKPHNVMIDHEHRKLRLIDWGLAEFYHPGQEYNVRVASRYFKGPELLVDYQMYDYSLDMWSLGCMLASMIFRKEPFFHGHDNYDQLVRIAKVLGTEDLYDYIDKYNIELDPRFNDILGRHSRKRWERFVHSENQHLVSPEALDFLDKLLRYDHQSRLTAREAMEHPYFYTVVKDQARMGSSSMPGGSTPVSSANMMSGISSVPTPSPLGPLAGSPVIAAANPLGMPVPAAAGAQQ
For assay [20], the target named is MAP kinase-activated protein kinase 5 (Homo sapiens, UniProt Q8IW41). The format is functional.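 Further: measured as one member of a kinome panel.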
Assay [21] addresses Serine/threonine-protein kinase 17A (Homo sapiens, UniProt Q9UEE5). The format is functional.
The target of assay [22] is MAP kinase-activated protein kinase 2 (Homo sapiens, UniProt P49137). The format is functional.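 Further: measured as one member of a kinome-wide kinase panel.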
In assay [23] the target is Dual specificity tyrosine-phosphorylation-regulated kinase 1A (Homo sapiens, UniProt Q13627). The format is functional.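 Further: measured against DYRK1A as one member of a broad kinome profiling panel.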
The target in assay [24] is Vascular endothelial growth factor receptor 2 (Homo sapiens, UniProt P35968). The format is functional.
Chain of Vascular endothelial growth factor receptor 2 (P35968 whole entry): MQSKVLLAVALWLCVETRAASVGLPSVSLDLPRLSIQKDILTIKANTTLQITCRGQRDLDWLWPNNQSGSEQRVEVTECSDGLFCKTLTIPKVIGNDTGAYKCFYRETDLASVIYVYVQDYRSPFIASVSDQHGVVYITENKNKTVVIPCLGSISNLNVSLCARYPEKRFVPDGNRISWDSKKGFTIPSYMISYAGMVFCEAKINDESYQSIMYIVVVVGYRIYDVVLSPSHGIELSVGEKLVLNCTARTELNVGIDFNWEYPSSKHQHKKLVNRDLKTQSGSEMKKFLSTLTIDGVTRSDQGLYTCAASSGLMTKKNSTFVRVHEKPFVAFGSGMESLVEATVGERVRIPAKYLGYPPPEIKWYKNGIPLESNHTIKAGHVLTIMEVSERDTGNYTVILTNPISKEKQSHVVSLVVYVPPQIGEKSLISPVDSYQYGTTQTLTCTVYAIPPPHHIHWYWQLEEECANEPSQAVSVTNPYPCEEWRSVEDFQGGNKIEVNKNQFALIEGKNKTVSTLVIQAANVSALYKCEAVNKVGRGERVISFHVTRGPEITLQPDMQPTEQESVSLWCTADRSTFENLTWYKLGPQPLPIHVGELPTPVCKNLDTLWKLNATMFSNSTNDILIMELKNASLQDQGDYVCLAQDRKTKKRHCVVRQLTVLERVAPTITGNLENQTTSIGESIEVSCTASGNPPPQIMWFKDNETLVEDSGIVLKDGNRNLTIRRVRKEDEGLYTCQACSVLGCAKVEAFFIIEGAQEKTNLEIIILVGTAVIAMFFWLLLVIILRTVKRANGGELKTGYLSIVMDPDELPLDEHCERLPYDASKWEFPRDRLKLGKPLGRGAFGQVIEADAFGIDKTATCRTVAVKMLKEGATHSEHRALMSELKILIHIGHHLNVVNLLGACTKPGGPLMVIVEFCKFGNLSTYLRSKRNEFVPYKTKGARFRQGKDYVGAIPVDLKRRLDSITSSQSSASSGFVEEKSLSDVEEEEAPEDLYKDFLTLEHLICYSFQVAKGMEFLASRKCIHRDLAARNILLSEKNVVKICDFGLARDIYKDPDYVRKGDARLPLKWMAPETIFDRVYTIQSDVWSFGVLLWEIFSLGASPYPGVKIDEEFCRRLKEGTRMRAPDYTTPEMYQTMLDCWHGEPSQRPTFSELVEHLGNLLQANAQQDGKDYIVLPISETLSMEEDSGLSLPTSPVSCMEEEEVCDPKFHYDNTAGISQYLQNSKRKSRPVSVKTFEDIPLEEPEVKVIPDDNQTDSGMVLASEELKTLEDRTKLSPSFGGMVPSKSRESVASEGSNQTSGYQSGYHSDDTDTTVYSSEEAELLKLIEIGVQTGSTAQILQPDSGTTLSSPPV
In assay [25] the target is MAP/microtubule affinity-regulating kinase 3 (Homo sapiens, UniProt P27448). The format is functional.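 Further: MARK3 affinity measured as one member of a kinome panel.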
The target in assay [26] is Cell division cycle 7-related protein kinase (Homo sapiens, UniProt O00311). The format is functional.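 Further: value obtained from a kinome-wide kinase panel.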
Chain of Cell division cycle 7-related protein kinase (O00311 whole entry): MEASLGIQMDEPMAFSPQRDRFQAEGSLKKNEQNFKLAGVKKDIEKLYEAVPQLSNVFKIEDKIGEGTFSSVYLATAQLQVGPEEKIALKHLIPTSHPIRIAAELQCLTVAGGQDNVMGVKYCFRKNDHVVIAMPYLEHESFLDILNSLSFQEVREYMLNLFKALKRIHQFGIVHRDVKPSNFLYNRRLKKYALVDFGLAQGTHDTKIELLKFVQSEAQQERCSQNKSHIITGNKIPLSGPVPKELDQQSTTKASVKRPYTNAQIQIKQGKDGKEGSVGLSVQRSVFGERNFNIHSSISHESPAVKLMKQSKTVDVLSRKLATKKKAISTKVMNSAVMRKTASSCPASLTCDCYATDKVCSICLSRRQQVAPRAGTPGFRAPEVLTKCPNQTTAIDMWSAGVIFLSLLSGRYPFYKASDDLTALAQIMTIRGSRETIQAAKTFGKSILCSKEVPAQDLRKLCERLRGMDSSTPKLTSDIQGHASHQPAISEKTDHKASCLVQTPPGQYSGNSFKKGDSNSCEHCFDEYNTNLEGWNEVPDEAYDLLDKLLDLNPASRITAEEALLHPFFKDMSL
Assay [27] deals with Ribosomal protein S6 kinase alpha-3 (Homo sapiens, UniProt P51812). In kind it is functional.
In assay [28] the target is Serine/threonine-protein kinase Nek4 (Homo sapiens, UniProt P51957). In kind it is functional.
The target in assay [29] is RAC-gamma serine/threonine-protein kinase (Homo sapiens, UniProt Q9Y243). In kind it is functional.
Chain of RAC-gamma serine/threonine-protein kinase (Q9Y243 whole entry): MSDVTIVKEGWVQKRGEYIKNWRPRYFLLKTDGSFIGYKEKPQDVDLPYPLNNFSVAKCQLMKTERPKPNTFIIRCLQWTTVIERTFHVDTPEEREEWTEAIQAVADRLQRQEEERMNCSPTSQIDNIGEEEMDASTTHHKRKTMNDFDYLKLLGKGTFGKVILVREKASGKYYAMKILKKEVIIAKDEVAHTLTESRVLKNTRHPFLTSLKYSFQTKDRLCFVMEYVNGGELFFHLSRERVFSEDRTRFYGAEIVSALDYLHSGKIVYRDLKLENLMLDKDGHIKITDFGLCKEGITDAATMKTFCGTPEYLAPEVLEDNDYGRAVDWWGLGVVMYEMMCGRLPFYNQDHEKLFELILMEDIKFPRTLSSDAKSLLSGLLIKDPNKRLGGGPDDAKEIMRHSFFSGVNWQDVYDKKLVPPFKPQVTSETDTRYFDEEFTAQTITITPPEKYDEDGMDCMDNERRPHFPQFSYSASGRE
Assay [30] deals with Mitogen-activated protein kinase kinase kinase 20 (Homo sapiens, UniProt Q9NYL2). In kind it is functional.
Chain of Mitogen-activated protein kinase kinase kinase 20 (Q9NYL2 whole entry): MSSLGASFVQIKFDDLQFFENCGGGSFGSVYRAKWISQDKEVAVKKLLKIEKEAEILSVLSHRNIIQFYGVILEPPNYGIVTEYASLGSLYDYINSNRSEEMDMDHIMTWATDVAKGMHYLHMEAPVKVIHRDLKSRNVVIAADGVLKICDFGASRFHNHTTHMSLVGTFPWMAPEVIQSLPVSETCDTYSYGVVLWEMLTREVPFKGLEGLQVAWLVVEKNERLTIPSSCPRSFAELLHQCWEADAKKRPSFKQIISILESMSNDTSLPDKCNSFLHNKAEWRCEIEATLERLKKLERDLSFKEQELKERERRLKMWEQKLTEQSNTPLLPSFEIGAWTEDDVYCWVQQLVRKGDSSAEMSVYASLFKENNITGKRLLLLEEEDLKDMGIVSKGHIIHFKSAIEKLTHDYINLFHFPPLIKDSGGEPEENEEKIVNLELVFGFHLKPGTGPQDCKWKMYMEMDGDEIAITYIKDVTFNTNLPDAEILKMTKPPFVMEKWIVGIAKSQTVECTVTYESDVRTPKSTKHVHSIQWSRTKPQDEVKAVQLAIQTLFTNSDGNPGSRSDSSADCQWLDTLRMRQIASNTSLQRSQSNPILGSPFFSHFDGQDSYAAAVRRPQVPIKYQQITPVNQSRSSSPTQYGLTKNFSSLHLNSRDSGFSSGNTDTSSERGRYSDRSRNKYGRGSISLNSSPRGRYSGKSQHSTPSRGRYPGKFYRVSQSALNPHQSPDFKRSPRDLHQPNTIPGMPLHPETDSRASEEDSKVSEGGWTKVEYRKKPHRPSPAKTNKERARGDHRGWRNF
Assay [31] has as its target Homeodomain-interacting protein kinase 2 (Homo sapiens, UniProt Q9H2X6). In kind it is functional.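 Further: measured within a kinome-wide kinase profiling panel, HIPK2 being one panel member.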
Assay [32] is described as follows: M. tuberculosis H37Rv growth inhibitors, H37Rv strain (AID 1626). In kind it is functional.
Assay [33] concerns the target Polyadenylate-binding protein 1 (Homo sapiens, UniProt P11940). The assay is described as follows: PABP1 MLLE–PAM2 binding inhibitor potency, dose response, biochemical, fluorescence polarization, FITC-PAM2 peptide (AID 602259). The note with it: read-out: IC50_Mean. In kind it is functional.
The next assay deals with CAAX prenyl protease 2 (Saccharomyces cerevisiae S288c, UniProt Q03530). In kind it is biochemical.
Assay [34] is described as follows: microbe, parasite or virus in culture. The format is functional. Conditions: Mycobacterium tuberculosis.
A further assay addresses Exodeoxyribonuclease V (Escherichia coli (strain K12), UniProt P04993+P07648+P08394). Put plainly: E. coli RecBCD inhibitors, dose response, counter-screen for AddAB inhibitor project, absorbance, V66 E. coli, mutant T4 phage (AID 492957). In kind it is functional, cell-based, Escherichia coli str. K-12 substr. MG1655.
Assay [35] concerns the target Intestinal-type alkaline phosphatase (Homo sapiens, UniProt P09923). The assay is described as follows: human IAP inhibitors, dose response, biochemical, luminescent, uHTS hits, set 2 (AID 488793). The format is functional.
Assay [36] addresses T1, COUP transcription factor 2 (Homo sapiens, UniProt P24468).
T1 sequence (P24468 whole entry): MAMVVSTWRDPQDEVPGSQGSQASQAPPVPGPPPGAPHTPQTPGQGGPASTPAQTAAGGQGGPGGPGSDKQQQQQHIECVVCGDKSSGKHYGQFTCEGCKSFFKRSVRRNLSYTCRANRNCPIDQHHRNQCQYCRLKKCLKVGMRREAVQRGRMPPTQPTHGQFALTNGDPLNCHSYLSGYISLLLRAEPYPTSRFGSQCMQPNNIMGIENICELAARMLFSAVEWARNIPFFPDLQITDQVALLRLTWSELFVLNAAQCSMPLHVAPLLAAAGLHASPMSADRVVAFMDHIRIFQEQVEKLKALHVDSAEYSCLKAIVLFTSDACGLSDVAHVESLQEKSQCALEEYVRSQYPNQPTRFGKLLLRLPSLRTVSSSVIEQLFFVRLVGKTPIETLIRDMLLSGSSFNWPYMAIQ
Put plainly: Luminescence-based cell-based high throughput dose response assay to identify inhibitors of COUP-TFII (NR2F2). The format is functional.

Structures can show the parent of a compound that is named as a salt. The source made the active and inactive calls.

Chain of Tyrosine-protein kinase Fyn (P06241 whole entry): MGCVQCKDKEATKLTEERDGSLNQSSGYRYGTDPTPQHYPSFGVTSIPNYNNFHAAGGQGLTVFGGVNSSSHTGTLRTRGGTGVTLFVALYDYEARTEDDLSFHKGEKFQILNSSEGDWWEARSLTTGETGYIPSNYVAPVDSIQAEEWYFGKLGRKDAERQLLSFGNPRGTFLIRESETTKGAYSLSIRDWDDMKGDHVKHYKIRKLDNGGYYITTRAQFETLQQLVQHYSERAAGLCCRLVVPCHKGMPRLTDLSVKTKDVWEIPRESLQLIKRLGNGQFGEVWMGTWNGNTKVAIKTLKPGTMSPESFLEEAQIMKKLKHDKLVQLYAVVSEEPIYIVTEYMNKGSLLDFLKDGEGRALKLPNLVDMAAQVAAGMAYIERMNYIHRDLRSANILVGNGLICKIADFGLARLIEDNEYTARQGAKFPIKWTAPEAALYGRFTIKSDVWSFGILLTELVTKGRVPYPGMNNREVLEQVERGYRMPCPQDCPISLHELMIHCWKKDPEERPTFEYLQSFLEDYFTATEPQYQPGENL
Chain of cAMP-dependent protein kinase catalytic subunit PRKX (P51817 whole entry): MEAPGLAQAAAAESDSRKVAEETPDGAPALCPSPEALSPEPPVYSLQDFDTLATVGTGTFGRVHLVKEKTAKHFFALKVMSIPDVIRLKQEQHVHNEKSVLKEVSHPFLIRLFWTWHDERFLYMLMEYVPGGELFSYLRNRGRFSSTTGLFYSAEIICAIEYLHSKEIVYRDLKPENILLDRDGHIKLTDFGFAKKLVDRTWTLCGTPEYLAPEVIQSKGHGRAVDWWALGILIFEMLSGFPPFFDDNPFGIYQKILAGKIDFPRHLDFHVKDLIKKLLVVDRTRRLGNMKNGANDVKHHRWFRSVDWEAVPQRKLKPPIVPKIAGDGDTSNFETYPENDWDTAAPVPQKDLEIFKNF

Take `CN1CCN(c2nc(C3=C(c4c[nH]c5ccccc45)C(=O)NC3=O)c3ccccc3n2)CC1` [SOTRASTAURIN]: the Ki in [1] was > 10 µM (inactive); in [2], > 7.94 µM (inactive); in [3] it was > 2.51 µM (inactive); in assay [4] it was > 1.26 µM (inactive); in assay [5], > 7.94 µM (inactive); in [6], > 2 µM (inactive). The Ki is > 2.51 µM (inactive) in assay [7]; > 3.16 µM (inactive) in assay [8]; > 1.58 µM (inactive) in [9]; > 3.98 µM (inactive) in assay [10]; 0.0316 µM (active) in assay [11]; > 6.31 µM (inactive) in assay [12]. For the same compound, the Ki is > 10 µM (inactive) in assay [13]; > 3.16 µM (inactive) in [14]; > 7.94 µM (inactive) on SRSF protein kinase 1; 0.158 µM (active) in [15]; 3.16 µM (active) in [16]; > 2 µM (inactive) in assay [17]. Further, the Ki in [18] is > 2.51 µM (inactive); in [19], > 6.31 µM (inactive); in assay [20], > 1.58 µM (inactive); in [21], > 3.98 µM (inactive); in assay [22] it was > 7.94 µM (inactive); in assay [23], > 3.98 µM (inactive). The Ki in [24] is 0.398 µM (active); in assay [25], 1 µM (active); in assay [26], > 1.26 µM (inactive); in assay [27], 0.126 µM (active); in assay [28], > 6.31 µM (inactive); in assay [29] it was > 10 µM (inactive). The Ki was > 7.94 µM (inactive) in assay [30] and > 3.16 µM (inactive) in assay [31].

As to `O=C(CCl)Oc1ccc2occ(C(=O)c3cccs3)c2c1`, the IC50 in [32] was > 100 µM (active).

As to `CC[C@@H](CO)NC(=O)[C@@H]1C=C2c3cccc4c3c(cn4C)C[C@H]2N(C)C1` [METHYSERGIDE MALEATE], the IC50 in assay [33] is 32.2 µM (inactive).

As to `CCCCCCCCCCOC(=O)C[n+]1c(COc2ccc(C)cc2)n(C)c2ccccc21`, the AC50 at CAAX prenyl protease 2 was 5.51 µM (active).

As for `CCC(C)n1c(NC(=O)c2ccccc2)c(C#N)c2nc3ccccc3nc21` (centres undefined), the CC50 in assay [34] was 28.1 µM (active).

`CCN1/C(=C\c2ccc3ccccc3[n+]2CC)Sc2cc(C)ccc21`: the IC50 on Exodeoxyribonuclease V was 72.8 µM (inactive); in assay [35] it was 23.5 µM (active); in assay [36], 2.75 µM (active).

The values above are taken from ChEMBL document CHEMBL1201862, “PubChem BioAssay data set” (2004).
